Measurements: US11453632B2, “1-phenyl-2-phenylethane derivative” (KAO CORPORATION, priority 2018, dated 2022)

Tests used:
[1] = system: back skin browning induced by testosterone; assay: Effect on sebum secretion (back skin browning) in testosterone-treated rat; assay type: in vivo; conditions: testosterone 3 mg/kg/day plus test substance, subcutaneous osmotic pump, 28 days
Source text: 12-week-old male Slc:SD (SPF) rats were obtained from Japan SLC, Inc. An acclimatization period was established for 1 week after receipt. During the acclimatization period, the rats were allowed to freely ingest a powder diet (AIN-93G). 2) Implantation of Osmotic Pump After body weight measurement, back hair was shaved under isoflurane (AbbVie GK) inhalation anesthesia, and carprofen was subcutaneously administered to the rats. Then, an incision of approximately 1 cm at the maximum was made on the cranial side in the back. An osmotic minipump Alzet (Muromachi Kikai Co., Ltd.) containing testosterone and compound 17-F or finasteride (Sigma-Aldrich Co. LLC) was subcutaneously implanted. From this osmotic pump, testosterone (3 mg/kg body weight/day) (Sigma-Aldrich Co. LLC) and compound 17-F (0.1 mg/body weight/day or 1 mg/kg body weight/day) or finasteride (0.1 mg/kg body weight/day or 1 mg/kg body weight/day) were continuously administered for 28 days. Since the implantation of the osmotic pump, the rats were allowed to freely ingest customized feed AIN-93G (Oriental Yeast Co., Ltd.) free from components derived from soybeans. 3) Photographing of Skin and Harvesting of Prostate After a lapse of 28 days, body weights were measured, and subsequently, the rats were euthanized by blood letting under isoflurane anesthesia. […] Wet weights were measured. […]

[2] = system: prostate of testosterone-induced prostatic hyperplasia rat; assay: Efficacy on prostate in testosterone-induced prostatic hyperplasia rat; assay type: in vivo; conditions: testosterone 3 mg/kg/day plus test substance 0.1 or 1 mg/kg body weight/day, subcutaneous osmotic pump, 28 days, vs testosterone alone
Source text: 12-week-old male Slc:SD (SPF) rats were obtained from Japan SLC, Inc. An acclimatization period was established for 1 week after receipt. During the acclimatization period, the rats were allowed to freely ingest a powder diet (AIN-93G).
2) Implantation of Osmotic Pump
After body weight measurement, back hair was shaved under isoflurane (AbbVie GK) inhalation anesthesia, and carprofen was subcutaneously administered to the rats. Then, an incision of approximately 1 cm at the maximum was made on the cranial side in the back. An osmotic minipump Alzet (Muromachi Kikai Co., Ltd.) containing testosterone and compound 17-F or finasteride (Sigma-Aldrich Co. LLC) was subcutaneously implanted. From this osmotic pump, testosterone (3 mg/kg body weight/day) (Sigma-Aldrich Co. LLC) and compound 17-F (0.1 mg/body weight/day or 1 mg/kg body weight/day) or finasteride (0.1 mg/kg body weight/day or 1 mg/kg body weight/day) were continuously administered for 28 days. Since the implantation of the osmotic pump, the rats were allowed to freely ingest customized feed AIN-93G (Oriental Yeast Co., Ltd.) free from components derived from soybeans.
3) Photographing of Skin and Harvesting of Prostate
After a lapse of 28 days, body weights were measured, and subsequently, the rats were euthanized by blood letting under isoflurane anesthesia. Back hair was shaved, followed by photographing. Then, the abdominal cavity was opened to harvest the prostate on the ventral side. Wet weights were measured.

With `CC(C)(C)NC(=O)[C@H]1CC[C@H]2[C@@H]3CC[C@H]4NC(=O)C=C[C@]4(C)[C@H]3CC[C@]12C` [finasteride, reference compound] the “skin browning induced by testosterone (sebum secretion, FIG. 3)” value [1] was “such an inhibitory effect was not confirmed”, the “size of the prostate (visual, FIG. 1)” value [2] was “Concentration-dependent decrease in the size of the prostate” and the “weight of the prostate corrected with the body weight (FIG. 2)” value [2] was “decreased to almost the same level as in the DMSO administration group”.
